The results in this text go back to EP3248604A1, “AGENTS FOR MODULATION OF WNT-TCF SIGNALLING AND USES THEREOF” (UNIVERSITE DE GENEVE, priority 2016, dated 2017).

Molecules are shown by their SMILES.

The test system of one series is Ls174T cells. Put plainly: Clonal spheroid assay, Ls174T. The format is cell-based, human. Particulars: Ls174T pretreated at 5µM; after three passes. Here is the method: (§1) Cells were treated with different concentrations of compounds for 16h in 2D adherent culture, washed, harvested and plated in suspension with serum-free DMEM-F12 media with B27 supplement (1:50 dilution) at 1 cell/well in 96-well format in triplicates. Plated cells were monitored to ensure the presence of single cells in each well and spheroids counted and photographed after 10 days for each round.
(§2) To directly test for a long-lasting repression of WNT-TCF targets by CAP2 clonogenic properties of cancer stem cells were tested. DLD1 and LS174T cells were first treated with CAP2 in 2D culture in vitro followed by removal of the drug, washing with PBS, and plating under non-adherent 3D conditions for clonal spheroid growth in the absence of the drug. After primary spheroid growth, the spheroids were dissociated and replated as single cells for secondary and subsequent clonogenic spheroid formation, also in the absence of the compound of the invention. As negative control DMSO-treatment was used.

The test system of another series is CYCLIN D1. Kind of series: Western blot of CYCLIN D1 in DLD1 cells. The format is cell-based, human. To be noted: 5 µM CAP2 (batch 3), vs DMSO. Here is the method: Western blot performed according to standard methods.
The effect of CAP2 on WNT-TCF signaling the levels of direct TCF target CYCLIN D1 were measured since it is useful to measure TCF response (Melotti et al., 2014, sura).

Series [1] relates to CC14 cells. Kind of series: Live imaging cell proliferation (growth curves). The class given is cell-based, human. To be noted: 150 nM, vs DMSO. Here is the method: Primary colon cells CC14 were cultured in DMEM-F12 with 10% FBS under standard in vitro conditions.
Live imaging and quantification of total cell mass was performed using a Widefield plate reader, ImageXpress XL with an inbuilt temperature and CO2 controller, and a CoolSnap HQ camera (Photometrics).

The subject of a further series is DLD1 xenografts. Kind of series: DLD1 colon cancer xenograft in Nude mice. The class given is in vivo. The protocol:
0.5x10^6 DLD1/ GFP^+ (cells expressing green fluorescent protein) cells were injected per flanks into 6 week-old female Nude mice (Janvier Labs). CAP2 (10mg/kg) complexed with cyclodextrine as vehicle, or vehicle alone, were injected daily intra-peritoneally (IP) once the tumors were palpable (25-50 mm^3). Tumor volumes were measured every other day with a caliper. Animals were sacrificed at the end of experiment and tumors harvested.
CAP2 from four independent batches supplied by Analyticon Discovery was dissolved in DMSO and suspended in 45% beta-cyclodextrin. 45% beta-cyclodextrin was used as vehicle for controls. 150µl of drug or vehicle alone was administered per mouse daily.
GFP^+ DLD1-engrafted mice were treated with cyclodextrin-conjugated CAP2 at 10mg/kg via IP […] starting at the time when tumors were palpable. […] Analyses of gene expression using human-specific primers in treated tumors (using the excised area where remnant DLD-GFP^+ cells could be found) confirmed the repression of human AXIN2, ASCL2 and LGR5 (Table 11).

The test system of series [2] is CC14 cells. Put plainly: Epithelial island morphology of CC14 cells. The format is cell-based, human. Particulars: 1 µM, 24h. Here is the method: Similar phenotypes were only observed at 10 µM of CAP1 or 5 µM of CAP3. CAP2 was thus chosen for further detailed analyses.
The next series concerns DLD1 cells. Put plainly: Clonal spheroid assay, DLD1. To be noted: DLD1 pretreated in 2D; normalized over DMSO controls (Figure 11A). The class given is cell-based, human. The protocol:
as §1, §2

`CC1=C(C)C(=O)O[C@@H]([C@](C)(O)[C@]2(O)CC[C@@]3(O)[C@@H]4CC=C5C=CCC(=O)[C@]5(C)[C@H]4CC[C@]23C)C1` [CAP2]: the “clonogenic cancer stem cells in serial spheroid assays” value with Ls174T cells is on record as “exhaustion of clonogenic cancer stem cells”. Also, the “level of CYCLIN D1 (Western blot)” value in the series with CYCLIN D1 is reported as “decrease in the level of TCF target CYCLIN D1”. The “effect on cell growth (growth curves)” value with CC14 cells [1] is reported as “growth repressive effect”. Also, in the series with DLD1 xenografts (DLD1 xenograft, Nude mice, 10mg/kg IP), the side effects entry is reported as “without any visible side effects”. In addition, the tumor growth entry in the series on DLD1 xenografts (DLD1 xenograft, Nude mice, cyclodextrin-conjugated CAP2 10mg/kg IP, vs cyclodextrin carrier) was “blockade of tumor growth”. In addition, the “number of regressed tumors that re-grew” value with DLD1 xenografts (four DLD1 regressed tumors, 90 days following drug removal) was “one”. Besides, in the series on CC14 cells [2], the epithelial island morphology entry is reported as “totally disrupted”. For the same compound, the “primary 3D clonal spheroids” value with DLD1 cells is on record as “dose-dependent decrease in primary spheroids”.
